Structures are written as SMILES.

The source of these data is patent publication US20260297508A1, “MODULATORS OF PROTEIN SECRETION” (SANOFI, priority 2023, published 2026).

Assay [1] has as its system GFP-tagged RUSH antibody trafficking, U2OS clone #7 cells. As to the kind of experiment: Time lapse / fluorescence microscopy of GFP-tagged antibody trafficking in clone #7. The class given is cell-based, human. The source says: (§1) FIGS. 2A-2F show characterization of the anti-PD-L1 antibody RUSH system. […] Molecular mass standards (in kDa) are indicated on the left in panel FIG. 2D. The structures of the proteins detected by immunoblot are indicated based on the scheme shown in FIG. 1B and include antibody heavy and light chains, GFP, SBP, and a linker with a furin cleavage site. The truncated shape at the antibody C-terminus represents linker residues left after cleavage by furin. Results are representative of at least 3 independent experiments.
U2OS clone #7 cells were seeded in black 96-well imaging plates (Greiner bio one, Kremsmünster, Austria). After 24 h, the medium was removed, cells were rinsed with 37° C. pre-heated PBS and fixed in PBS supplemented with 4% paraformaldehyde (PFA, Sigma) and 1 μg/mL Hoechst (Life Technologies, Carlsbad, CA, USA) for 20 min under agitation at room temperature (RT). Cells were rinsed with PBS before addition of a 5% FBS/0.3% Triton X-100/PBS permeabilizing solution for 30 min under agitation at RT. Cells were rinsed with PBS and incubated overnight under agitation at 4° C. with the primary antibody in 1% BSA/PBS. Cells were washed with PBS and incubated for 45 min under agitation at RT with the secondary antibody in 1% BSA/PBS. Finally, cells were washed, and processed for image acquisition using an IXM XL BioImager (Molecular Devices, Sunnyvale, CA).

For assay [2], the system named is RUSH antibody release and furin processing, U2OS clone #7 cells. Kind of assay: Western blot of cell lysates and concentrated supernatants of clone #7. The class given is cell-based, human. The following applies: 40 μM biotin, 4 h; FIG. 2C.
From the text: as §1
U2OS clone #7 cells were seeded in T-175 flasks and kept for 24 h at 37° C. in a humidified incubator with 5% CO2. […] At the end of the incubation time, cells were harvested and lysed in RIPA buffer (Thermo Fisher Scientific) supplemented with protease and phosphatase inhibitors (Roche, Basel, Switzerland). Additionally, cell culture supernatants were collected and concentrated ~100-fold in Amicon 50 kDa filter unit (Sigma) according to the manufacturer's instructions. Cell lysate and concentrated supernatant protein concentrations were determined using the BCA™ protein assay kit (Thermo Fisher Scientific). […] The membranes were then washed 3 times for 5 min with 0.01% Tween-20/TBS and peroxidase activity was evaluated with Amersham ECL Primer Western Blotting Detection Reagent (GE Healthcare, Little Chalfont, UK) on ImageQuant™ LAS4000 (GE Healthcare).
In general terms: Immunoblotting shows a protein as a band on a membrane.

Assay [3] relates to biotin-induced antibody release, U2OS clone #7 cells. Kind of assay: High-throughput RUSH screen: biotin-induced cytoplasmic GFP signal decay (antibody release), U2OS clone #7. It counts as cell-based, human. As to the method:
FIGS. 4A-4C show the high-throughput screening of chemical compound libraries for the identification of modulators of protein secretion. […] U2OS clone #7 is plated in 384-well plates and incubated for 24 h before treatment with each compound of the Prestwick, ICCB Known Bioactives, or Autophagy Compound Library at 2 concentrations, low and high (with a 10-fold difference). […] The results of the Prestwick library screening at the low drug concentration are plotted. Brefeldin A was used as a positive control of the inhibition of secretion. The compounds causing a cytoplasmic GFP intensity below that observed for biotin-only treated cells are potential enhancers of protein secretion.
U2OS cells were transfected with the streptavidin-KDEL plasmid using Lipofectamine 2000 (Thermo Fisher Scientific) and selected in medium supplemented with G418 (400 μg/mL, Gibco-Invitrogen) for 2 weeks. Limiting dilution in 96-well plates was used for single cell isolation from the selected pool. Clones were amplified and selected based on streptavidin immunofluorescence. Clone #BD6 showing the highest streptavidin expression was further expanded in medium supplemented with G418 (200 μg/mL) and transfected with the anti-PD-L1 IgG RUSH plasmid using Lipofectamine 2000 and selected in medium supplemented with G418 (200 μg/mL) and hygromycin (100 μg/mL, Santa Cruz Biotechnology) for 2 weeks. Limiting dilution in 96-well plates was used for single cell isolation from clone #BD6-derived selected pool. Clones were amplified and selected based on GFP fluorescence and clone #7 was selected for further characterization and screening campaigns.
U2OS clone #7 cells were seeded in black 384-well imaging plates (Greiner bio one), 2,000 cells/well, and incubated for 24 h at 37° C. in a humidified incubator with 5% CO2. Cells were treated on the next day with the compounds from either the Prestwick library at […], the ICCB Known Bioactives library at 1/100^e or 1/1000^e, or the autophagy compound library at 10 μM or 1 μM for 4 h. […] Cells were then fixed as described above and processed for subsequent automated image acquisition using a robot-assisted IXM XL BioImager (Molecular Devices, Sunnyvale, CA, USA) equipped with a Sola light source (Lumencor, Beaverton, OR, USA), adapted excitation and emission filters (Semrock) a 16-bit monochrome sCMOS PCO.edge 5.5 camera (PCO, Kelheim, Germany). A 20× PlanAPO objective (Nikon, Tokyo, Japan) was used to acquire a minimum of 4 view fields in each well. The acquired images were processed using the open-access R software (https://www.r-project.org) with the help of freely available packages EBImage (available on the Bioconductor repository https://www.bioconductor.org), and RBioFormats (https://github.com/aoles/RBioFormats), and the custom packages MetaxpR (https://github.com/asauvat/MetaxpR) and MorphR (https://github.com/kroemerlab/MorphR). Nuclei were first detected using Hoechst 33342 signal and used as a marker to detect cytoplasmic areas based on GFP signal, allowing for the evaluation of cytoplasmic GFP intensity. Data were thereafter extracted and statistically evaluated using R (https://www.r-project.org). Data were normalized using negative and positive controls, reduced and transformed into a Z-score. The experiments were repeated manually at low scale with selected drugs to confirm their effects on secretion, in this second set of assays, U2OS clone #7 cells incubated with secretion inhibitors were fixed and stained with Hoechst as described above for imaging and viability determination based on cell counts.
We next sought to use clone #7 in screening campaigns for the identification of drugs capable of enhancing or inhibiting antibody secretion. […] Cell counting was facilitated by nuclear counterstaining with Hoechst 33324 in order to assess viability and distinguish drug effects on the secretion kinetics from direct cytotoxicity and select relevant drugs for further characterization. […]

For assay [4] the test system is unchanged. Kind of assay: Low-throughput validation by imaging of the biotin-induced antibody release (cytoplasmic GFP), clone #7. It counts as cell-based, human. The note with it: FIG. 5C. As to the method:
FIGS. 5A-5C show selection of potential enhancers of protein secretion. FIGS. 5A and 5B) show dot plot representations of drugs efficiency based on their Z-scores measured at low and high drug concentration (FIG. 5A, Prestwick library; FIG. 5B, ICCB Known Bioactives and TargetMol Autophagy libraries). Compounds selected for further characterization are listed. (FIG. 5C) Clone #7 was treated with the indicated compounds, fixed and analyzed as described in FIG. 4A legend.
FIG. 6A-6C show validation of enhancers of protein secretion.
U2OS clone #7 cells were seeded in black 384-well imaging plates (Greiner bio one), 2,000 cells/well, and incubated for 24 h at 37° C. in a humidified incubator with 5% CO2. Cells were treated on the next day with the compounds from either the Prestwick library at […], the ICCB Known Bioactives library at 1/100^e or 1/1000^e, or the autophagy compound library at 10 μM or 1 μM for 4 h. […] Cells were then fixed as described above and processed for subsequent automated image acquisition using a robot-assisted IXM XL BioImager (Molecular Devices, Sunnyvale, CA, USA) equipped with a Sola light source (Lumencor, Beaverton, OR, USA), adapted excitation and emission filters (Semrock) a 16-bit monochrome sCMOS PCO.edge 5.5 camera (PCO, Kelheim, Germany). A 20× PlanAPO objective (Nikon, Tokyo, Japan) was used to acquire a minimum of 4 view fields in each well. […] Nuclei were first detected using Hoechst 33342 signal and used as a marker to detect cytoplasmic areas based on GFP signal, allowing for the evaluation of cytoplasmic GFP intensity. Data were thereafter extracted and statistically evaluated using R (https://www.r-project.org). […]
Medium- and high-throughput screenings often yield false positive and negative hits, calling for independent validation in low-throughput experiments with orthogonal technologies. In a first round of experiments, we evaluated the effects of shortlisted compounds with potential antibody secretion enhancer activity. […]

For assay [5], the system named is RUSH antibody secretion, U2OS clone #7 cells. As to the kind of experiment: ELISA on immobilized PD-L1: RUSH antibody titer in supernatant of treated clone #7 cells. The class given is cell-based, human. The note with it: PD-L1 binding ELISA. The protocol: FIGS. 7A and 7B show validation of inhibitors of protein secretion. […] Clone #7 cells were treated with the indicated compounds and supernatants were assayed for PD-L1 binding. Brefeldin A was used as a protein secretion inhibitor positive control. […] Hoechst 33324 fluorescence was measured, which enabled to number adherent living cells in each well.
U2OS clone #7 cells were seeded in 6-well plates and kept for 24 h at 37° C. in a humidified incubator with 5% CO2. The next day, the supernatants were removed, cells were rinsed with 37° C. pre-heated PBS and new medium containing the chemical treatment was added for 4 h. […] Then supernatants were collected and used for the ELISA assay as follows. MaxiSorp 96-well plates (Thermo Fisher Scientific) were coated with 0.5 μg/mL hFc-human-PD-L1 (R&D Systems, Minneapolis, MN) in PBS for 5.5 h at RT. Coating solution was then removed and 2% BSA/PBS blocking solution was added overnight at 4° C. The next day, wells were washed 3 times with 0.5% BSA/0.05% Tween-20/PBS solution. Supernatants were added after a ⅓ dilution in 0.5% BSA/0.05% Tween-20/PBS, for 2.3 h at RT. Wells were washed 3 times with 0.5% BSA/0.05% Tween-20/PBS solution. Anti-human kappa light chain HRP-coupled antibody was added diluted in 0.5% BSA/0.05% Tween-20/PBS at 1/4000^e for 2.3 h at RT. Wells were washed 3 times with 0.5% BSA/0.05% Tween-20/PBS solution before incubation with substrate reagents pack (R&D Systems) for 15 min in the dark. Fifty μL of STOP solution (R&D Systems) were then added to each well and the absorbance in each well was subsequently measured at 450 nm, and 635 nm for background subtraction, using a VICTOR™ X4 (PerkinElmer, Waltham, MA).
Medium- and high-throughput screenings often yield false positive and negative hits, calling for independent validation in low-throughput experiments with orthogonal technologies. In a first round of experiments, we evaluated the effects of shortlisted compounds with potential antibody secretion enhancer activity. Compounds identified in the screening campaigns were tested again on clone #7 at a low concentration (FIG. 6A) or a ten-fold higher concentration (FIG. 6B) for their ability to increase antibody secretion. […] We further characterized these hits in an PD-L1 binding ELISA.
In general terms: An ELISA detects its analyte on a solid surface through an enzyme-linked reagent.

The test system of another assay is SCAP. The note with it: cited from earlier work.

As for `O=C(O)CCCC[C@@H]1SC[C@@H]2NC(=O)N[C@@H]21` [biotin], in assay [1] (40 μM biotin), the “time of relocation of the GFP signal to the Golgi apparatus” value is reported as 40 to 120 min and the “time to complete cytoplasmic GFP signal decay” value is listed as ≤ 4 h. The GFP/streptavidin co-localization entry in assay [1] (4 h after addition of biotin, FIG. 2B) is given as “lost 4 h after addition of biotin”. For the same compound, the “Pearson's correlation coefficient (PCC), hook / GFP-tagged antibody colocalization” value in assay [1] (in the presence of biotin, 4 h, FIG. 2B) came to 0.29. For the same compound, in assay [2], the “Western blot signal intensity in cell lysate” value is on record as “intensity of the signal was lower”.
Turning to `O[C@H]1[C@H]2c3cc4c(cc3CN3CCC(=C[C@@H]1O)[C@H]23)OCO4` [lycorine, 3,12-Didehydro-2′H-[1,3]dioxolo[4′,5′:9,10]galanthan-1α,2β-diol], the “efficiency as secretion activator, high concentration” value in assay [3] (ICCB Known Bioactives and TargetMol Autophagy libraries, high concentration) was “not among the 20 most active compounds at the high concentration”. In addition, the “efficiency as secretion activator, low concentration” value in assay [3] (ICCB Known Bioactives and TargetMol Autophagy libraries, low concentration) is “more efficient than any other compound at low concentration”. Moreover, the “decrease of intracytoplasmic GFP fluorescence signal (biotin-stimulated RUSH system)” value in assay [3] (screening campaigns, summary) is reported as “consistently decreased intracytoplasmic GFP fluorescence”. The “effect on secretion by cell imaging” value in assay [4] is given as “secretion activator effect”. The “RUSH antibody titers in treated cell culture supernatant” value in assay [5] (summary) is given as “shown to increase RUSH antibody titers”. In addition, the “effect on antibody secretion compared with sodium butyrate” value in assay [5] (1 and 50 μM) is on record as “milder than that of sodium butyrate”. The antibody secretion-stimulatory activity entry in assay [5] (lycorine tested at both 1 and 50 μM, 4 h compound, biotin 1 h) is given as “considered to be active”. In addition, the SCAP inhibition entry with SCAP (orally active) is “potent and orally active SCAP inhibitor”. Besides, the SCAP protein level result with SCAP (without changing its transcription) is “downregulates”.
